Source: ChEMBL document CHEMBL3734692, “Design and synthesis of 2-oxindole based multi-targeted inhibitors of PDK1/Akt signaling pathway for the treatment of glioblastoma multiforme” (Eur J Med Chem, 2015)
pIC50: −log10 of the molar value. The source made the active and inactive calls. The calls are words filed in the database; no cut-off is given here.

Experiments:
ASPC1 = assay: Cytotoxicity against human AsPC1 cells assessed as cell viability 10 uM after 72 hrs by cell counting analysis relative to control; format: functional
[1] = molecular target: T1, 3-phosphoinositide-dependent protein kinase 1 (Homo sapiens, UniProt O15530); assay: Inhibition of PDK1 (unknown origin) incubated for 1 hr by Z'Lyte assay
T1 sequence (O15530 whole entry): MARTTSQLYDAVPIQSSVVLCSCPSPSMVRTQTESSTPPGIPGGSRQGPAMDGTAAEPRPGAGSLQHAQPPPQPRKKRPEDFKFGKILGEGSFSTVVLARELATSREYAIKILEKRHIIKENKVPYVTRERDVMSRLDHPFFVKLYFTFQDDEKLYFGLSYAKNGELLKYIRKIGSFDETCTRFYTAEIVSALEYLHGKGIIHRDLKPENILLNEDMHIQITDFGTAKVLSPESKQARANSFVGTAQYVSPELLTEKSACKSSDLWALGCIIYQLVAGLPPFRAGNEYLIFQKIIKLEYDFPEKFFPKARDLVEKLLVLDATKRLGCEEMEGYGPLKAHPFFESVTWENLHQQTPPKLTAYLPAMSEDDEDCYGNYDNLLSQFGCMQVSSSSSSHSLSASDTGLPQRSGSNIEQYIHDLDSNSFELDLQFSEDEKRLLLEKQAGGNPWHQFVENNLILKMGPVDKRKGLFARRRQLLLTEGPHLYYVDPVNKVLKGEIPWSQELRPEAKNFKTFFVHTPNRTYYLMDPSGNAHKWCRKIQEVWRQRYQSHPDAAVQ

[2] = molecular target: RAC-alpha serine/threonine-protein kinase (Homo sapiens) (UniProt P31749); assay: Inhibition of recombinant Akt1 (unknown origin) incubated for 1 hr by Z'Lyte assay
Sequence of RAC-alpha serine/threonine-protein kinase (Homo sapiens) (P31749 whole entry): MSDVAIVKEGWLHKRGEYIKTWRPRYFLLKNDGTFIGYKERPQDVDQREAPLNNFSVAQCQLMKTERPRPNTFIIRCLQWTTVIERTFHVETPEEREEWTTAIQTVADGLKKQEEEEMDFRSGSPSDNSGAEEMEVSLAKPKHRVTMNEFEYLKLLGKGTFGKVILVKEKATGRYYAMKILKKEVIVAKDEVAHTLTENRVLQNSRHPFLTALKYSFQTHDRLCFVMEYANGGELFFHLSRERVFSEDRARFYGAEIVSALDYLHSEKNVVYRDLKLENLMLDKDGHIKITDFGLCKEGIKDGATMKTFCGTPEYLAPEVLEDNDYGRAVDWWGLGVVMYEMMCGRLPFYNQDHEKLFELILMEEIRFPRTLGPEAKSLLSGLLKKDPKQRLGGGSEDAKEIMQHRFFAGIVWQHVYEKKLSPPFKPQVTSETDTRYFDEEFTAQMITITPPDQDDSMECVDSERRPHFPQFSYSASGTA

U-118-MG = assay: Antiproliferative activity against human U118MG cells assessed as inhibition of cell growth at 100 uM after 72 hrs by WST1 assay; format: functional, cell-based

Compound | Activity (ASPC1) [%] | further results
CS(=O)(=O)c1ccc(NC(=O)Nc2ccc3c(c2)/C(=C/c2cnc[nH]2)C(=O)N3)cc1 | 82.21 | 
Cn1ccnc1/C=C1/C(=O)Nc2ccc(NC(=O)Nc3ccc(S(C)(=O)=O)cc3)cc21 | 90.57 | 
CS(=O)(=O)Nc1ccc2c(c1)/C(=C/c1cnc[nH]1)C(=O)N2 | 73.83 | pIC50 [1]: 6.51; inhibition [2]: inactive
CS(=O)(=O)c1ccc(NC(=O)Nc2ccc3c(c2)/C(=C/c2cccs2)C(=O)N3)cc1 | 93.88 | 
COc1ccc(CNS(=O)(=O)c2ccc3c(c2)/C(=C\c2nccn2C)C(=O)N3)cc1OC | 84.5 | 
CS(=O)(=O)Nc1ccc2c(c1)/C(=C/c1cccs1)C(=O)N2 | 68.06 | pIC50 [1]: 5.17; inhibition [2]: inactive
Cn1ccnc1/C=C1/C(=O)Nc2ccc(NS(C)(=O)=O)cc21 | 96.23 | 
CSc1ccc(NC(=O)Nc2ccc3c(c2)/C(=C/c2cnc[nH]2)C(=O)N3)cc1 | 82.94 | 
Cn1nnc2c(C(N)=O)ncn2c1=O |  | growth inhibition (GI) (U-118-MG): inactive
CSc1ccc(NC(=O)Nc2ccc3c(c2)/C(=C/c2cccs2)C(=O)N3)cc1 | 77.29 | 
CSc1ccc(NC(=O)Nc2ccc3c(c2)/C(=C\c2nccn2C)C(=O)N3)cc1 | 95.13 | 
COc1ccc(CNS(=O)(=O)c2ccc3c(c2)/C(=C/c2cccs2)C(=O)N3)cc1OC | 84.18 | 
COc1cc2c(cc1OC)CN(CC(=O)Nc1ccc3c(c1)/C(=C\c1nccn1C)C(=O)N3)CC2 | 82.34 | 
COc1cc2c(cc1OC)CN(CC(=O)Nc1ccc3c(c1)/C(=C/c1cccs1)C(=O)N3)CC2 | 82.04 | 
COc1ccc(CNCC(=O)Nc2ccc3c(c2)/C(=C/c2cccs2)C(=O)N3)cc1OC | 86.75 | 
